One series deals with Wistar rats. As to the kind of experiment: MIA-induced arthritis rat model, incapacitance test. It counts as in vivo. The conditions noted are these: intra-articular at day 14 after MIA (400 ng/30 uL in PBS), vs control group; FIG. 9B. The method, then: Wistar rats (Charles River, Japan) aged 10 weeks and weighing 330 to 345 g were used for this study. The rats were divided into two groups (those to be injected with Activin A after injection of mono-iodoacetic acid (MIA), and those to be injected with vehicle after injection of MIA (control)), and subjected to the following experiments.
First, the rats were anesthetized by isoflurane inhalation, and 30 μL of physiological saline containing 1.0 mg MIA was injected into the left knee joint as described in Hoshino T. et al, BMC Musculoskelet Disord., 2018, 19(1): 291. Then, at day 14 after MIA injection, 30 μL of recombinant human Activin A (400 ng/30 μL in PBS) or PBS only as a vehicle was injected. Then, pain avoidance behavior (load asymmetry) between the left limb (MIA-injected side) and the right limb (MIA-uninjected side) was evaluated at day 0 (before injection) and days 1, 3, 7, 14, 17, 19, 21, 24, and 28 after injection.
Load asymmetry was detected by using an incapacitance tester (Linton Instrumentation, Norfolk, UK) with rats in its prismatic Plexiglas case, and the left and right hindlimbs placed on independent force plates. […]
Then, the change from the difference in the percentage of load before administration was then evaluated over time. […]

Series [1] deals with rheumatoid arthritis-derived synovial cells (mesenchymal cells). The conditions noted are these: cited from earlier work.
The test system of another series is C57BL/6J mice. As to the kind of experiment: Medial meniscus anterior 1/2 resection model. Type of series: in vivo, mouse. An excerpt:
Twenty male C57BL/6J mice (8 weeks old, weight: about 25 g) were used for this study (5 mice in each group. ORIENTAL YEAST Co., Ltd. Tokyo, Japan). After anesthesia by isoflurane inhalation, a straight incision was made in the left anterior knee, and the anterior central side of the joint capsule was cut. The patellar tendon was then dislocated laterally to expose the anterior corner of the medial meniscus (see Hiyama K. et al, J Orthop Res., 2017, 35(9), pp. 1958 to 1965). The anterior corner of the meniscus was cut and dislocated anteriorly using forceps. The medial meniscus was cut perpendicularly at the medial collateral ligament, and the anterior portion of the medial meniscus was resected in a microscopic operation using a surgical microscope. The skin was closed in layers with non-absorbable sutures. Note that the right knee was subjected to sham surgery. In addition, the mice were kept under a 12-hour light/dark cycle with free movement, free feeding, and drinking water.
Recombinant human Activin A (42 ng/6 μL in PBS) and/or rh PDGF-AA (174 ng/6 μL in PBS) was injected intra-articularly on postoperative day 7 (see Hoshino T. et al., BMC Musculoskelet Disord., 2018, 19(1): 291). […]
Tissue samples were fixed in 4% paraformaldehyde for 3 to 4 days and subjected to decalcification in 20% ethylenediaminetetraacetic acid (EDTA) solution for 21 days. Then, they were embedded in paraffin wax. The specimens were then cut to a 5 μm thickness in the sagittal plane and stained with safranin O/Fast Green or hematoxylin/eosin (H&E) to histologically evaluate meniscus regeneration.
A modified Pauli's score system was used to histologically quantify meniscus regeneration (see Hiyama K. et al, J Orthop Res. 2017, 35(9), pp. 1958 to 1965). Histological evaluation was performed by two investigators in a blind manner.
Type I and II collagen immunostaining was performed as described in Tsuji K. et al, Cell Transplant., 2017, 26(6), pp. 1089 to 1102. That is, sections were subjected to deparaffinization with xylene (Wako Pure Chemical Industries, Tokyo, Japan), rehydrated stepwise with alcohol, and saturated with phosphate buffered saline (PBS). For type II collagen staining, the samples were pretreated with 50 mM Tris-HCl buffer (Wako Pure Chemical Industries) containing 0.4 mg/ml Proteinase K (Dako, Agilent Technologies, Santa Clara, Calif., USA) for 10 min. For type I collagen staining, no digestion with Proteinase K was performed.
Next, the cells were treated with methanol containing 0.3% hydrogen peroxide for 30 minutes to suppress the activity of endogenous peroxidase. As primary antibodies, anti-type I collagen antibody (1:200 dilution; Abcam cat. #ab34712, Cambridge, UK) or anti-type II collagen antibody (1:1000 dilution; Abcam […], Cambridge, UK) were added to the sections and incubated at 4° C. overnight. Then, the sections were rinsed with 0.1% PBS-Triton X-100 (MP Biomedicals Inc., Solon, Ohio, USA) and incubated with secondary antibodies diluted 1:200 [Biotinylated goat-derived anti-rabbit immunoglobulin G (IgG), Vector Laboratories, Burlingame, Calif., USA]. Then, the sections were rinsed, the signals were visualized with Vectastain ABC Reagent (Vector Laboratories), and diaminobenzidine staining (DAB, Vector Laboratories) was applied. In addition, the sections were contrast stained with hematoxylin (Muto Pure Chemicals, Tokyo, Japan).

“Activin A: homodimer of two inhibin βA chains; recombinant human protein purchased from R&D Systems”: the “load on MIA-injected hindlimb (pain avoidance behavior)” value with Wistar rats is on record as “significant improvement”. Further, the “proliferation of rheumatoid arthritis-derived synovial cells” value in series [1] was “promotes the proliferation”. Further, the “regenerated meniscus tissue (histology)” value in the series on C57BL/6J mice (42 ng/knee intra-articular on day 7, 10 days after resection, FIG. 7A) is “more uniform regenerated meniscus tissue, was induced”; in the series on C57BL/6J mice (21 days after resection (day 14 after administration), FIG. 7B), “uniform regeneration of cartilage-like tissue was observed”; in the series on C57BL/6J mice (56 days after resection (day 49 after administration), FIG. 7C) it was “formation of bone marrow-like tissue”; in the series on C57BL/6J mice (84 days after resection (day 77 after administration), FIG. 7D), “regenerated tissue image very close to that of a normal meniscus”. Also, in the series on C57BL/6J mice (10 days after resection, vs control and PDGF groups, FIG. 7A), the “staining property of safranin O (proteoglycans)” value is “enhanced”. For the same substance, the “expression of type II collagen” value in the series on C57BL/6J mice (21 days after resection, FIG. 7B) is “Uniform expression”. Moreover, the “meniscus regeneration process, modified Pauli's score” value in the series on C57BL/6J mice (day 10, 21, 56 and 84 after meniscectomy, FIG. 7E) is “significantly accelerated”. Further, in the series on C57BL/6J mice (intra-articular on day 7, 10 days after resection, FIG. 7A), the “vascular invasion in the regenerated region” value is reported as “almost completely suppressed”. For the same substance, the “osteoinduction in regenerated tissues” value in the series on C57BL/6J mice (regenerated tissues administered with activin) is “no osteoinduction was observed”.

These data come from patent US20220160779A1, “COMPOSITION FOR PROMOTING CARTILAGE TISSUE REGENERATION” (National University Corporation Tokyo Medical and Dental …, priority 2019, published 2022).
